Results from article PMC3281842, “Crystal Structure of TDRD3 and Methyl-Arginine Binding Characterization of TDRD3, SMN and SPF30” (PLoS ONE, 2012).
Like-named read-outs stand apart in the source and are kept apart here. Square brackets hold non-standard residues; d marks the D form. Peptide text beside a SMILES is read from it. Arg(Me2a) = CN(C)C(=N)NCCC[C@H](N)C(=O)O; Arg(Me2s) = CN=C(NC)NCCC[C@H](N)C(=O)O; Arg(Me) = CNC(=N)NCCC[C@H](N)C(=O)O

Key:
SMN (aa 80–170) = target: T1, SMN (aa 80–170) (Homo sapiens, UniProt Q16637); assay: Fluorescence polarization binding assay, SMN Tudor domain; settings: for Kd: fluorescence polarization, fluorescein-labeled peptide, 20 mM Tris pH 7.5, 50 mM NaCl, 1 mM DTT, 0.01% Triton X-100, 25°C, average of three independent measurements, NB = no detectable binding
T1 construct: SMN (aa 80–170); His tag (pET28-MHL) (N); made in house; host or cells: Escherichia coli BL21 (DE3)
T1 sequence (Q16637 80-170): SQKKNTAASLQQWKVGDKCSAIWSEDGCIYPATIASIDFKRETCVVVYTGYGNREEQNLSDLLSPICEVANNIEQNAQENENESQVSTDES
Protocol: (§1) Figure 1 Fluorescence polarization binding curves of TDRD3 (aa 520–633), SMN (aa 80–170), and SPF30 (aa 65–150) to the PIWIL1-R4 peptides. The buffer used in the fluorescence polarization assay is 20 mM Tris pH 7.5, 50 mM NaCl, 1 mM DTT and 0.01% Triton X-100. The data are measured at 25°C and corrected for background by subtracting the free-labeled peptide background. The Kd values are the average of three independent measurements.
(§2) All the regular and fluorescent peptides used this study were synthesized by Tufts University Core Services (Boston, USA). The fluorescence polarization assay was carried out as described before. The buffer used in the fluorescence polarization assay is 20 mM Tris pH 7.5, 50 mM NaCl, 1 mM DTT and 0.01% Triton X-100. An excitation wavelength of 485 nm and an emission wavelength of 528 nm are used. The data are measured at 25°C and corrected for background by subtracting the free-labeled peptide background. The data were collected by the Synergy 2 (BioTec, USA) fluorescence polarization program and were fit to one-site binding model using Origin 7 (MicroCal, Inc.). The Kd values are the average of three independent measurements.

SND1 (aa 650–910) [1] = target: T2, SND1 (aa 650–910) (Homo sapiens, UniProt Q7KZF4); settings: values marked * in Table 1; NB = no detectable binding; ref Liu K et al, PNAS, 2010 [20]; cited from earlier work
T2 construct: SND1 (aa 650–910)
T2 sequence (Q7KZF4 650-910): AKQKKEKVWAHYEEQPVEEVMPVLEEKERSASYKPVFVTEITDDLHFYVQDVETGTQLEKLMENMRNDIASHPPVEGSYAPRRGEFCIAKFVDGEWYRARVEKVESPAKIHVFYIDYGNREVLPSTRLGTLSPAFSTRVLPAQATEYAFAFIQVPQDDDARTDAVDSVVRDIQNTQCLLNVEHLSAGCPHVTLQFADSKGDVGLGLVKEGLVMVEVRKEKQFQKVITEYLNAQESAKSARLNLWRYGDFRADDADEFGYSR
Text: Table 1 Binding affinities of TDRD3 (aa 520–633), SMN (aa 80–170), and SPF30 (aa 65–150) to different methyl-arginine peptides in comparison with SND1 (aa 650–910). | column: Kd (µM) / SND1 (aa 650–910)

SPF30 (aa 65–150) = target: T3, SPF30 (aa 65–150) (Homo sapiens, UniProt O75940); assay: Fluorescence polarization binding assay, SPF30 Tudor domain; settings: fluorescein-labeled peptide, 20 mM Tris pH 7.5, 50 mM NaCl, 1 mM DTT, 0.01% Triton X-100, 25°C, average of three independent measurements, NB = no detectable binding
T3 construct: SPF30 (aa 65–150); His tag (pET28-MHL) (N); made in house; host or cells: Escherichia coli BL21 (DE3)
T3 sequence (O75940 65-150): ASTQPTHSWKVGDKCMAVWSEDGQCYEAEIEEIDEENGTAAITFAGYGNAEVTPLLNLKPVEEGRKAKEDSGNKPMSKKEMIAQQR
Protocol: as §1, §2

TDRD3 (aa 520–633) [2] = target: T4, TDRD3 (aa 520–633) (Homo sapiens, UniProt Q9H7E2); assay: ITC (Isothermal Titration Calorimetry) binding, TDRD3; settings: 20 mM Tris pH 8.0, 200 mM NaCl, 25°C, one-site binding model, NB = no detectable binding
T4 construct: TDRD3 (aa 520–633); His tag (pET28-MHL) (N); made in house; host or cells: Escherichia coli BL21 (DE3)
T4 sequence (Q9H7E2 520-633): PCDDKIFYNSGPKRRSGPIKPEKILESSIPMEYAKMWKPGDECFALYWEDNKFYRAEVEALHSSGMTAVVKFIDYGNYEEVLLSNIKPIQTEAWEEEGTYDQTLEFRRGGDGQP
Protocol: Figure 2 Preferential binding of TDRD3 to asymmetrical dimethylated H3R17 peptide over symmetrical dimethylated H3R17 peptide. The ITC measurements were done in 20 mM Tris pH 8.0 and 200 mM NaCl using the same TDRD3 construct as used in Table 1. The measurements were taken at 25°C. Binding isotherms were plotted and analyzed using Origin Software (MicroCal Inc.). The ITC measurements were fit to a one-site binding model. (A) Histone H3R17me2a peptide (TGGKAPRme2aKQLATKA). (B) Histone H3R17me2s peptide (TGGKAPRme2sKQLATKA). (C) PIWIL1_R4me2a peptide (TGRme2aARARA). TEXT PRINTED IN THE PICTURE: (A) H3R17me2a: Kd>1000μM | (B) H3R17me2s: No binding | (C) PIWIL1_R4me2a: Kd>500μM
The protocol for ITC (Isothermal Titration Calorimetry) was carried out as described before. The ITC buffer used in this study is 20 mM Tris pH 8.0 and 200 mM NaCl. The measurements were taken at 25°C. Binding isotherms were plotted and analyzed using Origin Software (MicroCal Inc.). The ITC measurements were fit to a one-site binding model.

SND1 (aa 650–910) [3] = target: T2, SND1 (aa 650–910); assay: Fluorescence polarization binding assay, SND1 extended Tudor domain; settings: values without asterisk in Table 1, NB = no detectable binding
Protocol: as §2

TDRD3 (aa 520–633) [4] = target: T4, TDRD3 (aa 520–633); assay: Fluorescence polarization binding assay, TDRD3 Tudor domain; settings: fluorescein-labeled peptide, 20 mM Tris pH 7.5, 50 mM NaCl, 1 mM DTT, 0.01% Triton X-100, 25°C, average of three independent measurements, NB = no detectable binding
Protocol: TDRD3 contains a Tudor domain at its C-terminus. […] In order to characterize its binding specificity and affinity quantitatively, we performed a series of fluorescence polarization (FP) binding assays using our fluorescein-labeled peptide library, which includes GAR motif-containing SmD3 and PIWIL1 peptides, PGM motif-containing SmB peptides, and histone H3R2 peptides (Table 1 and Fig. 1). A low salt concentration (50 mM NaCl) is used in the FP binding assay due to the weak binding affinities of these proteins to their ligands. At this salt concentration, the binding affinities are increased about four times compared to the data measured at 200 mM NaCl (Fig. S1), which will save the reagents and make the Kd measurement more reliable. […] Therefore, TDRD3 has a different binding selectivity than SND1, which we have previously established that the extended Tudor domain of SND1 preferentially binds symmetrically dimethylated arginine PIWIL1 peptides. Similar to SND1, the binding selectivity of TDRD3 among these three different arginine methylation marks is about 2 to 4-fold (Table 1).
as §1, §2

Compound	Kd (SMN (aa 80–170)) [µM]	Kd (SPF30 (aa 65–150)) [µM]	Kd (TDRD3 (aa 520–633) [4]) [µM]	also measured
ARTKQTARK(me)1/2/3STGGKA [Histone H3K9me1/2/3, histone H3 peptides mono-, di- or trimethylated at K9, reported in one line]	> 500	> 500		Kd (SND1 (aa 650–910) [1]): > 500 µM
CC(C)C[C@H](NC(=O)[C@H](CCC(N)=O)NC(=O)[C@H](CCCCN)NC(=O)[C@H](CCCNC(=N)N(C)C)NC(=O)[C@@H]1CCCN1C(=O)[C@H](C)NC(=O)[C@H](CCCCN)NC(=O)CNC(=O)CNC(=O)[C@@H](N)[C@@H](C)O)C(=O)N[C@@H](C)C(=O)N[C@H](C(=O)N[C@@H](CCCCN)C(=O)N[C@@H](C)C(=O)O)[C@@H](C)O [H3R17me2a]				Kd (TDRD3 (aa 520–633) [2]): > 1000 µM
ARTK (me)1/2/3 QTARKST [Histone H3K4me1/2/3, histone H3 peptides mono-, di- or trimethylated at K4, reported in one line]	> 500	> 500		Kd (SND1 (aa 650–910) [1]): > 500 µM
C[C@H](NC(=O)[C@H](CCCNC(=N)N)NC(=O)[C@H](C)NC(=O)[C@H](CCCNC(=N)N)NC(=O)[C@H](C)NC(=O)[C@H](CCCNC(=N)N(C)C)NC(=O)CNC(=O)[C@@H](N)[C@@H](C)O)C(=O)O [PIWIL1_R4me2a peptide (TGRme2aARARA)] (H-TG[Arg(Me2a)]ARARA-OH; N-terminus and C-terminus assumed)				Kd (TDRD3 (aa 520–633) [2]): > 500 µM
CN=C(NC)NCCC[C@H](NC(=O)CNC(=O)[C@@H]1CCCN1C(=O)[C@@H]1CCCN1C(=O)[C@@H](N)Cc1ccc(O)cc1)C(=O)NCC(=O)NCC(=O)N1CCC[C@H]1C(=O)N1CCC[C@H]1C(=O)N1CCC[C@H]1C(=O)O [PGM(SmB165SD)] (H-YPPG[Arg(Me2s)]GGPPP-OH; N-terminus and C-terminus assumed)	> 300	> 500		Kd (SND1 (aa 650–910) [3]): > 500 µM
CN=C(NC)NCCC[C@H](NC(=O)[C@@H]1CCCN1C(=O)[C@H](C)NC(=O)[C@H](CCCCN)NC(=O)CNC(=O)CNC(=O)[C@@H](N)[C@@H](C)O)C(=O)N[C@@H](CCCCN)C(=O)N[C@@H](CCC(N)=O)C(=O)N[C@@H](CC(C)C)C(=O)N[C@@H](C)C(=O)N[C@H](C(=O)N[C@@H](CCCCN)C(=O)N[C@@H](C)C(=O)O)[C@@H](C)O [H3R17me2s]				Kd (TDRD3 (aa 520–633) [2]): > 500 µM; Kd TDRD3 (aa 520–633) by ITC (TDRD3 (aa 520–633) [2]): No binding

Second part, led by results:

Kd (SMN (aa 80–170)) [µM]	Kd (SPF30 (aa 65–150)) [µM]	Kd (TDRD3 (aa 520–633) [4]) [µM]	Compound	also measured
> 500	> 500		CN=C(NC)NCCC[C@H](NC(=O)[C@H](CCSC)NC(=O)CNC(=O)[C@@H]1CCCN1C(=O)[C@@H]1CCCN1)C(=O)NCC(=O)N1CCC[C@H]1C(=O)N1CCC[C@H]1C(=O)N1CCC[C@H]1C(=O)O [PGM(SmB221SD)] (H-PPGM[Arg(Me2s)]GPPP-OH; N-terminus and C-terminus assumed)	Kd (SND1 (aa 650–910) [3]): > 500 µM
	> 200	> 300	CN=C(NC)NCCC[C@H](NC(=O)CNC(=O)[C@@H](N)[C@@H](C)O)C(=O)N[C@@H](C)C(=O)N[C@@H](CCCNC(=N)N)C(=O)N[C@@H](C)C(=O)N[C@@H](CCCNC(=N)N)C(=O)N[C@@H](C)C(=O)N[C@@H](CCCNC(=N)N)C(=O)NCC(=O)N[C@@H](CCCNC(=N)N)C(=O)N[C@@H](C)C(=O)N[C@@H](CCCNC(=N)N)C(=O)NCC(=O)N[C@@H](CCC(N)=O)C(=O)N[C@@H](CCC(=O)O)C(=O)O [PIWIL1-R4me2s] (H-TG[Arg(Me2s)]ARARARGRARGQE-OH)	
	> 500	> 400	CN=C(NC)NCCC[C@H](NC(=O)CNC(=O)[C@H](CCCNC(=N)N)NC(=O)CNC(=O)CN)C(=O)NCC(=O)N[C@@H](CCCNC(=N)N)C(=O)NCC(=O)O [SmD3RSDMA] (H-GGRG[Arg(Me2s)]GRG-OH)	
> 400	> 500		CN=C(NC)NCCC[C@H](NC(=O)[C@H](CCSC)NC(=O)CNC(=O)[C@@H]1CCCN1C(=O)[C@@H]1CCCN1)C(=O)N1CCC[C@H]1C(=O)N1CCC[C@H]1C(=O)N1CCC[C@H]1C(=O)N1CCC[C@H]1C(=O)NCC(=O)O [PGM(SmB214SD)] (H-PPGM[Arg(Me2s)]PPPPG-OH; N-terminus and C-terminus assumed)	Kd (SND1 (aa 650–910) [3]): > 500 µM
	> 400	> 150	C[C@H](NC(=O)[C@H](CCCNC(=N)N)NC(=O)CNC(=O)[C@H](CCCNC(=N)N)NC(=O)[C@H](C)NC(=O)[C@H](CCCNC(=N)N)NC(=O)[C@H](C)NC(=O)[C@H](CCCNC(=N)N)NC(=O)[C@H](C)NC(=O)[C@H](CCCNC(=N)N(C)C)NC(=O)CNC(=O)[C@@H](N)[C@@H](C)O)C(=O)N[C@@H](CCCNC(=N)N)C(=O)NCC(=O)N[C@@H](CCC(N)=O)C(=O)N[C@@H](CCC(=O)O)C(=O)O [PIWIL1-R4me2a] (H-TG[Arg(Me2a)]ARARARGRARGQE-OH)	
> 150	> 500	> 500	CNC(=N)NCCC[C@H](NC(=O)CNC(=O)[C@@H](N)[C@@H](C)O)C(=O)N[C@@H](C)C(=O)N[C@@H](CCCNC(=N)N)C(=O)N[C@@H](C)C(=O)N[C@@H](CCCNC(=N)N)C(=O)N[C@@H](C)C(=O)N[C@@H](CCCNC(=N)N)C(=O)NCC(=O)N[C@@H](CCCNC(=N)N)C(=O)N[C@@H](C)C(=O)N[C@@H](CCCNC(=N)N)C(=O)NCC(=O)N[C@@H](CCC(N)=O)C(=O)N[C@@H](CCC(=O)O)C(=O)O [PIWIL1-R4me1] (H-TG[Arg(Me)]ARARARGRARGQE-OH; N-terminus and C-terminus assumed)	binding affinity to SMN, times weaker than for PIWIL1_R4me2s (SMN (aa 80–170); ratio of FP Kd values relative to PIWIL1_R4me2s (Kd 34 µM)): over 4 times
